Experimental data: patent US20110306636A1, “OXAZOLE PYRIDINE DERIVATIVES USEFUL AS S1P1 RECEPTOR AGONISTS” (Merck Serono SA, priority 2009, published 2011)
pEC50: −log10 of the molar value. Where a name gives a salt, the structure may show the parent alone. Read-outs that look alike come from different tables or passages of the source.

Assays:
S1P1 [1] = target: T1, S1P1 (Homo sapiens, UniProt P21453); experiment: Receptor binding assay, [33P]sphingosine 1-phosphate competition, S1P1
Summary of the method: (§1)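 SPA competition binding on CHO-cell membranes with 30 pM (S1P1) or 15 pM (S1P3) [33P]S1P in 50 mM HEPES pH 7.5, 5 mM MgCl2, 100 mM NaCl, 0.4% fatty acid-free BSA, 60 min at RT. Percent inhibition normalised to total binding and to non-specific binding (1000-fold unlabelled S1P), triplicates averaged.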

S1P3 [2] = target: T2, S1P3 (Homo sapiens, UniProt Q99500); experiment: 35S-GTPγS binding assay, S1P3 membranes; type: biochemical; settings: membranes from CHO cells expressing S1P3; read-out: S1P3/GTPG EC50
T2 sequence (Q99500 whole entry, species assumed): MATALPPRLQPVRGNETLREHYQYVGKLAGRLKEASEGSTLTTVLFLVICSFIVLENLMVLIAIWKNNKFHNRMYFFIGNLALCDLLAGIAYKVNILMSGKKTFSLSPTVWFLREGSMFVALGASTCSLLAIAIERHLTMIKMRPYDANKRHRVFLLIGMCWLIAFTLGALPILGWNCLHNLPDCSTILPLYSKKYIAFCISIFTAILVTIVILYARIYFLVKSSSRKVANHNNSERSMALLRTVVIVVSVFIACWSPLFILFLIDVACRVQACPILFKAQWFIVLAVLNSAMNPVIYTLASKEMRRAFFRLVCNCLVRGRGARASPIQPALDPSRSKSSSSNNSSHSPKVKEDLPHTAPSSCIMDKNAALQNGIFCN
Experimental: (§2) Membranes Preparation: Membranes were prepared from CHO cells expressing S1P1 or S1P3 for use in ligand and 35S-GTPγS binding studies. Cells were suspended in 50 mM TRIS, pH 7.4, 2 mM EDTA, 250 mM Sucrose (buffer A) and 1× Complete protease inhibitor cocktail (Roche), and disrupted at 4° C. by N2 decompression using a cell disruption bomb (Parr Instrument). Following centrifugation at 1000 RPM for 10 min at 4° C., the supernatant was diluted (2×) in buffer A and centrifuged again at 19000 RPM for 75 min at 4° C. The pellet was then suspended in 10 mM HEPES, pH 7.4, 1 mM EDTA, 250 mM Sucrose (Buffer B), and 1× Complete EDTA-free protease inhibitor cocktail and homogenized using a potter. Membranes were flash frozen in liquid N2 and stored at −80° C.
(§3) Measurements of 35S-GTPγS Binding: Membranes (1 to 10 μg protein) prepared as described above, were incubated in 96-well Scintiplates (PerkinElmer) with test compounds diluted in DMSO, in 140 μl of 20 mM HEPES, pH 7.4, 10 mM MgCl2, 2 μg/well Saponin, 0.2% fatty acid free BSA (Assay buffer), 125 mM NaCl and 1.5 μM GDP. The assay was initiated with the addition of 60 μl of 1.5 nM [35S]-GTPγS (1100 Ci/mmol; GE Healthcare) in assay buffer. After 60 min incubation at 30° C. on a shaker, plates were centrifuged for 10 min at 2000 RPM. Supernatant was discarded and membrane bound radioactivity was measured on a PerkinElmer 1450 MicroBeta counter. Triplicate samples were averaged and expressed as % response relative to S1P activation in absence of compound (n=2).

S1P1 [3] = target: T1, S1P1; experiment: 35S-GTPγS binding assay, S1P1 membranes; type: biochemical; settings: membranes from CHO cells expressing S1P1; read-out: S1P1/GTPG EC50
Experimental: as §2, §3
The “potency” or the “activity” of the compounds is determined by the EC50 values as evaluated in the above described 35S-GTPγS binding assay.

[4] = target: T3, human S1P1 Receptor fused to the green fluorescent protein (EGFP) (Homo sapiens, UniProt P21453); experiment: Internalization of S1P1 in S1P1-U2OS cells by cell imaging analysis; type: cell-based; settings: 1 hour incubation, 384-well
T3 construct: host or cells: U2OS (human bone osteosarcoma epithelial cells), CMV promoter, geneticin selection
T3 sequence (P21453 with tags, fused parts or gaps): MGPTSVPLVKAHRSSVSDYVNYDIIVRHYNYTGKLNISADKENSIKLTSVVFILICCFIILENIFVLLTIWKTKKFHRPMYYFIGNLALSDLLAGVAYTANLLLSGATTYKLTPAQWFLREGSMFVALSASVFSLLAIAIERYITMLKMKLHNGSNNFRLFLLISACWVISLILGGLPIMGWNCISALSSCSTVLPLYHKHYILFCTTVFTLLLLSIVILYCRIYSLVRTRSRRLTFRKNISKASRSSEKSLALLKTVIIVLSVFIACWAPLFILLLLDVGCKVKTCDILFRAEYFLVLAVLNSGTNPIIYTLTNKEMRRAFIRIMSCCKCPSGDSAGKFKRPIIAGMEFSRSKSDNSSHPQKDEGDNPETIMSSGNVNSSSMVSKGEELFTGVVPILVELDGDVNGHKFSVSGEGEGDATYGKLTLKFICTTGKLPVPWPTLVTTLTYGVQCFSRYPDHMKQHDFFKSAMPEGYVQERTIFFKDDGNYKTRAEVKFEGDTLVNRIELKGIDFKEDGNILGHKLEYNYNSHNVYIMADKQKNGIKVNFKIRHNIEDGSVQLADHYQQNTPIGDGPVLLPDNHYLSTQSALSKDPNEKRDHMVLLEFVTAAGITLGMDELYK
Summary of the method: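 Human U2OS osteosarcoma cells stably expressed human S1P1-EGFP. After 2 h serum starvation in 0.1% fatty-acid-free BSA medium, cells were treated with compounds for 1 h at 37 °C. Cells were then fixed and Hoechst-stained, and internalization was imaged as spots (receptor) per nucleus.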

S1P3 [5] = target: T2, S1P3; experiment: Receptor binding assay, [33P]sphingosine 1-phosphate competition, S1P3
Summary of the method: as §1

[6] = 96 well-plate, read-out: S1P1 binding IC50 (M) (96 well-plate)
[7] = 384 well-plate, read-out: S1P1 binding IC50 (M) (384 well-plate)
[8] = 96 well-plate, read-out: S1P3 binding IC50 (M) (96 well-plate)
[9] = 384 well-plate, read-out: S1P3 binding IC50 (M) (384 well-plate)

T1 sequence (P21453 whole entry, species assumed): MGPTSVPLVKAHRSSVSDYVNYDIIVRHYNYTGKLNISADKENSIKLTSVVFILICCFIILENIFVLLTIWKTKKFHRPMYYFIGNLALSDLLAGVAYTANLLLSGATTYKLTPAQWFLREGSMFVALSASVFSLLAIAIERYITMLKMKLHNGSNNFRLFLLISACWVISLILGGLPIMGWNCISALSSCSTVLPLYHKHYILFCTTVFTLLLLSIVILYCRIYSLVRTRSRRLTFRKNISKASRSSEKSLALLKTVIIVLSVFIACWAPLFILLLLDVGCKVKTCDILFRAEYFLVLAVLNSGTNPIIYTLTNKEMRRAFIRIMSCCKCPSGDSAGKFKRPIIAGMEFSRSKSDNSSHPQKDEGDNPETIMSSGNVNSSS

Row | SMILES | IC50 (S1P1 [1]; [6]) [M] | pEC50 (S1P3 [2]) | pEC50 (S1P1 [3]) | pEC50 [4] | IC50 (S1P1 [1]; [7]) [M] | IC50 (S1P3 [5]; [8]) [M] | IC50 (S1P3 [5]; [9]) [M] | melting point [°C]
1 | COCc1cc(-c2nc(-c3ccc(N)nc3)no2)ccc1-c1ccccc1C [Example 4, 5-{5-[2-(methoxymethyl)-2′-methylbiphenyl-4-yl]-1,2,4-oxadiazol-3-yl}pyridin-2-amine, hydrochloride salt] | 1.75e-09 | 5.57 | 8.39 | 7.49 | 3.2e-08 | 6.07e-06 | 7.85e-06 | –
2 | COCc1cc(-c2nc(-c3ccc(N)nc3)no2)ccc1N1CCCCC1C (stereo not shown) [Example 9, 5-{5-[3-(methoxymethyl)-4-(2-methylpiperidin-1-yl)phenyl]-1,2,4-oxadiazol-3-yl}pyridin-2-amine] | 4.29e-09 | 5.58 | 8.75 | – | – | – | – | –
3 | COCc1cc(-c2nc(-c3ccnc(NCC(=O)O)c3)no2)ccc1-c1ccccc1C [Example 11, N-(4-{5-[2-(methoxymethyl)-2′-methylbiphenyl-4-yl]-1,2,4-oxadiazol-3-yl}pyridin-2-yl)glycine, hydrochloride salt] | – | – | 7.65 | 6.61 | 6.42e-08 | – | 2.97e-06 | –
4 | COCc1cc(-c2nc(-c3cnc(N)c(Cl)c3)no2)ccc1-c1ccccc1C [Example 14, 3-chloro-5-{5-[2-(methoxymethyl)-2′-methylbiphenyl-4-yl]-1,2,4-oxadiazol-3-yl}pyridin-2-amine] | 1.89e-08 | 5.84 | 8.23 | 7.35 | – | 1.65e-05 | – | –
5 | COCc1cc(-c2nc(-c3ccnc(N)c3)no2)ccc1-c1ccccc1C [Example 15, 4-{5-[2-(methoxymethyl)-2′-methylbiphenyl-4-yl]-1,2,4-oxadiazol-3-yl}pyridin-2-amine, hydrochloride salt] | 1.04e-08 | 6.38 | 8.45 | 8.22 | – | – | – | –
6 | COCc1cc(-c2nc(-c3cnc(N)nc3)no2)ccc1-c1ccccc1C [Example 17, 5-{5-[2-(methoxymethyl)-2′-methylbiphenyl-4-yl]-1,2,4-oxadiazol-3-yl}pyrimidin-2-amine] | – | – | 6.82 | 6.82 | 2.92e-08 | – | – | –
7 | CC1CCCCN1c1ccc(-c2nc(-c3ccc(N)nc3)no2)cc1C(F)(F)F (stereo not shown) [Example 20, 5-{5-[4-(2-methylpiperidin-1-yl)-3-(trifluoromethyl)phenyl]-1,2,4-oxadiazol-3-yl}pyridin-2-amine] | 1.03e-08 | – | 7.83 | – | – | – | – | –
8 | COCc1cc(-c2nc(-c3ccc(O)nc3)no2)ccc1N1CCCCC1C (stereo not shown) [Example 22, 5-{5-[3-(methoxymethyl)-4-(2-methylpiperidin-1-yl)phenyl]-1,2,4-oxadiazol-3-yl}pyridin-2-ol] | 1.3e-09 | 6.82 | 8.28 | – | – | – | – | –
9 | COCc1cc(-c2nc(-c3ccc(N)nc3)no2)ccc1-c1ccccc1Cl [Example 32, 5-{5-[2′-chloro-2-(methoxymethyl)biphenyl-4-yl]-1,2,4-oxadiazol-3-yl}pyridin-2-amine] | 1.39e-09 | – | 8.53 | 7.41 | 2.12e-08 | 9.4e-06 | – | –
10 | COCCNc1ncc(-c2noc(-c3ccc(-c4ccccc4C)c(COC)c3)n2)cc1Cl [Example 34, 3-chloro-N-(2-methoxyethyl)-5-{5-[2-(methoxymethyl)-2′-methylbiphenyl-4-yl]-1,2,4-oxadiazol-3-yl}pyridin-2-amine] | 5.26e-09 | – | 7.93 | – | – | – | – | –
11 | COCc1cc(-c2nc(-c3cnc(NCCC(=O)O)c(Cl)c3)no2)ccc1-c1ccccc1C [Example 37, N-(3-chloro-5-{5-[2-(methoxymethyl)-2′-methylbiphenyl-4-yl]-1,2,4-oxadiazol-3-yl}pyridin-2-yl)-beta-alanine, hydrochloride salt] | 1.07e-09 | 5.68 | 8.63 | 7.70 | 1.06e-08 | 2.86e-06 | 1.5e-05 | –
12 | COCc1cc(-c2nc(-c3cnc(N)c(Cl)c3)no2)ccc1-c1ccccc1Cl [Example 47, 3-chloro-5-{5-[2′-chloro-2-(methoxymethyl)biphenyl-4-yl]-1,2,4-oxadiazol-3-yl}pyridin-2-amine] | 6.02e-09 | – | – | 7.57 | – | 2e-05 | – | 182 to 184
13 | CCOc1cc(-c2nc(-c3cnc(N)c(C)c3)no2)ccc1-c1ccccc1C(F)(F)F [Example 77, 5-{5-[2-ethoxy-2′-(trifluoromethyl)biphenyl-4-yl]-1,2,4-oxadiazol-3-yl}-3-methylpyridin-2-amine] | – | – | – | 7.13 | 1.49e-08 | – | – | 163 to 165

The remaining lines, values ahead:

Row | IC50 (S1P1 [1]; [6]) [M] | pEC50 (S1P3 [2]) | pEC50 (S1P1 [3]) | pEC50 [4] | IC50 (S1P1 [1]; [7]) [M] | IC50 (S1P3 [5]; [8]) [M] | IC50 (S1P3 [5]; [9]) [M] | melting point [°C] | SMILES
14 | 4.83e-09 | 5.72 | 7.68 | – | – | – | – | – | COCc1cc(-c2nc(-c3ccc(NCCC(=O)O)nc3)no2)ccc1-c1ccccc1C [Example 2, N-(5-{5-[2-(methoxymethyl)-2′-methylbiphenyl-4-yl]-1,2,4-oxadiazol-3-yl}pyridin-2-yl)-beta-alanine, hydrochloride salt]
15 | 9.09e-09 | 6.93 | 8.29 | – | – | – | – | – | COCc1cc(-c2nc(-c3ccnc(NCCC(=O)O)c3)no2)ccc1-c1ccccc1C [Example 7, N-(4-{5-[2-(methoxymethyl)-2′-methylbiphenyl-4-yl]-1,2,4-oxadiazol-3-yl}pyridin-2-yl)-beta-alanine, hydrochloride salt]
16 | 4.33e-09 | – | 8.31 | 7.31 | 1.52e-08 | 2.21e-05 | – | – | COCc1cc(-c2nc(-c3cnc(N)c(C)c3)no2)ccc1-c1ccccc1C [Example 18, 5-{5-[2-(methoxymethyl)-2′-methylbiphenyl-4-yl]-1,2,4-oxadiazol-3-yl}-3-methylpyridin-2-amine, hydrochloride salt]
17 | 4.76e-08 | 6.37 | 8.40 | – | – | – | – | – | COCc1cc(-c2nc(-c3ccc(O)nc3)no2)ccc1-c1ccccc1C [Example 21, 5-{5-[2-(methoxymethyl)-2′-methylbiphenyl-4-yl]-1,2,4-oxadiazol-3-yl}pyridin-2-ol]
18 | 5.7e-09 | 5.78 | 7.87 | – | – | – | – | – | CCC1CCCCN1c1ccc(-c2nc(-c3ccc(N)nc3)no2)cc1COC (stereo not shown) [Example 27, 5-{5-[4-(2-ethylpiperidin-1-yl)-3-(methoxymethyl)phenyl]-1,2,4-oxadiazol-3-yl}pyridin-2-amine]
19 | 4.54e-09 | – | 8.28 | – | – | – | – | – | COCc1cc(-c2nc(-c3ccc(NCCO)nc3)no2)ccc1-c1ccccc1C [Example 28, 2-[(5-{5-[2-(methoxymethyl)-2′-methylbiphenyl-4-yl]-1,2,4-oxadiazol-3-yl}pyridin-2-yl)amino]ethanol]
20 | 5.37e-08 | – | 8.13 | – | – | – | – | – | COCc1cc(-c2nc(-c3ccc(N)nc3)no2)ccc1N1CCCC1C (stereo not shown) [Example 33, 5-{5-[3-(methoxymethyl)-4-(2-methylpyrrolidin-1-yl)phenyl]-1,2,4-oxadiazol-3-yl}pyridin-2-amine]
21 | – | – | – | 7.43 | 2.16e-08 | – | – | 143 to 145 | COCc1cc(-c2nc(-c3cnc(N)c(C)c3)no2)ccc1-c1ccccc1Cl [Example 76, 5-{5-[2′-chloro-2-(methoxymethyl)biphenyl-4-yl]-1,2,4-oxadiazol-3-yl}-3-methylpyridin-2-amine]
22 | – | – | – | 7.23 | 2.15e-08 | – | – | 162 to 164 | COCc1cc(-c2nc(-c3cnc(N)c(C)c3)no2)ccc1-c1ccccc1F [Example 79, 5-{5-[2′-fluoro-2-(methoxymethyl)biphenyl-4-yl]-1,2,4-oxadiazol-3-yl}-3-methylpyridin-2-amine]
